In publication PMC4002258 (Biochimica et biophysica acta, 2013):
Where two headings read alike, the source gives them in different places. Marks after values point to notes of the source that are not given here.

Tests used:
Type in all cases: biochemical
[1] = target: T1, human recombinant core 2 β1,6-GlcNAc-transferase (C2GnT1) (Homo sapiens, UniProt Q02742); test: C2GnT1 glycosyltransferase assay; settings: for C2GnT1 activity (%): acceptor substrate 0.5 mM, 0.5 mM Galβ1–3GalNAcα-pnp set to 100%
T1 sequence (Q02742 33-428 limits assumed): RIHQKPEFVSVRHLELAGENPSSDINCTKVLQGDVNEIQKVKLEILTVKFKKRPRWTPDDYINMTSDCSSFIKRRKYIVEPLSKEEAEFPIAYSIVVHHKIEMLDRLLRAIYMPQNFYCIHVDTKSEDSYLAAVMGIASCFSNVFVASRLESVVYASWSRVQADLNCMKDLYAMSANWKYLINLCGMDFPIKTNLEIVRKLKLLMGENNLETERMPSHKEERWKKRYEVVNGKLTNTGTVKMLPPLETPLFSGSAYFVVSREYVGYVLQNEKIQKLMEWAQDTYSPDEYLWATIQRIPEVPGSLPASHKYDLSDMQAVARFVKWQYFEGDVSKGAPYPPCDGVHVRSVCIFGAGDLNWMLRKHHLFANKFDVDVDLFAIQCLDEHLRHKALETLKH

[2] = target: T2, human recombinant core 2/4 β1,6-GlcNAc-transferase (C2GnT2) (Homo sapiens, UniProt O95395); settings: for C2GnT2 activity (%): acceptor substrate 0.5 mM, 0.5 mM Galβ1–3GalNAcα-pnp set to 100%
T2 sequence (O95395 27-438): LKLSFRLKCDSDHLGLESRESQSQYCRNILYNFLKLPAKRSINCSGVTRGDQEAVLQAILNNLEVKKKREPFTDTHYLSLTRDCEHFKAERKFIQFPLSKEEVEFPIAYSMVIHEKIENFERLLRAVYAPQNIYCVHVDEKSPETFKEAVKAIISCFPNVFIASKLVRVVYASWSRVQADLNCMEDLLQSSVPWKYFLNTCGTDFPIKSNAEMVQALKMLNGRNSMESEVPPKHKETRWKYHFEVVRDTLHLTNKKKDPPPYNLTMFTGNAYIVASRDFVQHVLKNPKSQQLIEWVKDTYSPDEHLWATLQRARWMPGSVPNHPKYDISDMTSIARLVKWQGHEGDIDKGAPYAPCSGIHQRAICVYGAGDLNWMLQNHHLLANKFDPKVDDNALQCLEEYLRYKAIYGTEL

[3] = target: human recombinant core 1 β1,3-Gal-transferase (C1GalT) (Homo sapiens, UniProt Q9NS00); test: C1GalT glycosyltransferase assay; settings: acceptor substrate 0.5 mM; 0.5 mM GalNAcα-Bn set to 100%
Chain of human recombinant core 1 β1,3-Gal-transferase (C1GalT) (Q9NS00 30-363 limits assumed): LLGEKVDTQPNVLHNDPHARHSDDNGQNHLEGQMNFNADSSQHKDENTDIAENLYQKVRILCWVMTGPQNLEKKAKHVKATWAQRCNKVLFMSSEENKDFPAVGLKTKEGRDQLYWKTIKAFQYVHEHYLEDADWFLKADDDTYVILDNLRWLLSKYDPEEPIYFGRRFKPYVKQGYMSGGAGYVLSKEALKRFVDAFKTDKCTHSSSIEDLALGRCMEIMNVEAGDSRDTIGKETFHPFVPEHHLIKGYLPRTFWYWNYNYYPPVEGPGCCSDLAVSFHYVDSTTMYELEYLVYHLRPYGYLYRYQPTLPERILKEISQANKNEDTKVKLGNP

Row | Compound | C2GnT1 activity (%) [1] | C2GnT2 activity (%) [2] | further results
1 | CC(=O)N[C@H]1[C@H](O[C@H]2[C@@H](O)[C@@H](CO)O[C@H](Oc3ccc([N+](=O)[O-])cc3)[C@@H]2NC(C)=O)O[C@H](CO)[C@@H](O)[C@@H]1O [GlcNAcβ1–3GalNAcα-pnp, reference compound] | <1% | 32% | Vmax ([2]; C2GnT2, acceptor substrate): 1.0 µmol/h/mg
2 | AHGVT-(Galβ1–3GalNAcα)SAPDTRPAPGSTAP- (Galβ1–3GalNAcα)TA | 18% | <1% | 
3 | T-(GalNAcα)TTVTPTPTG |  |  | C1GalT activity (%) [3]: 231%
4 | AHGVT-(Galβ1–3GalNAcα)SAPDTRPAPGSTAPNA | 9% | <1% | 
5 | Ac-PTT-(Galβ1–3GalNAcα)TGIST-NH2 | 36% | <1% | 
6 | CO[C@H]1[C@@H](O)[C@@H](CO)O[C@@H](O[C@H]2[C@@H](O)[C@@H](CO)O[C@H](OCc3ccccc3)[C@@H]2NC(C)=O)[C@@H]1O [3-O-Methyl-Galβ1–3GalNAcα-Bn] | 104% | 41% | 
7 | TT-(Galβ1–3GalNAcα)TVTPTPTG | 13% | <1% | 
8 | CC(=O)N[C@H]1[C@@H](Oc2ccc([N+](=O)[O-])cc2)O[C@H](CO)[C@H](O)[C@@H]1O[C@@H]1O[C@H](CO)[C@H](O)[C@H](O)[C@H]1O [Galβ1–3GalNAcα-pnp, reference compound] | 100 ^a % | 100 ^b % | Vmax ([2]; C2GnT2, acceptor substrate): 1.5 µmol/h/mg
9 | CC(=O)N[C@H]1[C@H](OC[C@H]2O[C@H](OCc3ccccc3)[C@H](NC(C)=O)[C@@H](O[C@@H]3O[C@H](CO)[C@@H](O)[C@H](O)[C@H]3NC(C)=O)[C@H]2O)O[C@H](CO)[C@@H](O)[C@@H]1O [GlcNAcβ1–6(GlcNAcβ1–3)GalNAcα-Bn] | <1% | <1% | 
10 | CC(=O)N[C@H]1[C@@H](OCc2ccccc2)O[C@H](CO)[C@@H](O)[C@@H]1O[C@@H]1O[C@H](CO)[C@H](O)[C@H](O)[C@H]1O [Galβ1–3GlcNAcα-Bn] | <1% |  | 
11 | TETTSHS-(Galβ1–3GalNAcα)TPG | 70% | 7% | 
12 | Ac-PT-(Galβ1–3GalNAcα)TTGIST-NH2 | 49% | 6% | 
13 | Ac-P-(Galβ1–3GalNAcα)TTTGIST-NH2 | 7% | <1% | 
14 | AHGVT-(Galβ1–3GalNAcα)SAPDTRPAPGS- (Galβ1–3GalNAcα)SAPPA | 9% | <1% | 
15 | AHGVT-(Galβ1–3GalNAcα)SAPETRPAPGSTAPTA | 11% | <1% | 
16 | Ac-P-(Galβ1–3GalNAcβ)TTTPIST-NH2 | 72% | 32% | 
17 | TET-(Galβ1–3GalNAcα)TSHSTPG | 27% | <1% | 

Row | Compound | C2GnT1 activity (%) [1] | C2GnT2 activity (%) [2] | further results
18 | TE-(GalNAcα)TTSHSTPG |  |  | C1GalT activity (%) [3]: 373%
19 | CC(=O)N[C@H]1[C@@H](OCc2ccccc2)O[C@H](CO)[C@H](O)[C@@H]1O[C@@H]1O[C@H](CO)C[C@H](O)[C@H]1O [4-Deoxy-Galβ1–3GalNAcα-Bn] | <1% | <1% | 
20 | CC(=O)N[C@H]1[C@@H](OCc2ccccc2)O[C@H](CO)[C@H](O)[C@@H]1O[C@@H]1O[C@H](CO)[C@H](O)C[C@H]1O [3-Deoxy-Galβ1–3GalNAcα-Bn] | 90% | 52% | 
21 | Ac-G-(Galβ1–3GalNAcα)TTTPIST-NH2 | 12% | 8% | 
22 | CC(=O)N[C@H]1[C@@H](OCc2ccccc2)O[C@H](CO)[C@H](O)[C@@H]1O[C@@H]1O[C@H](C)[C@H](O)[C@H](O)[C@H]1O [6-Deoxy-Galβ1–3GalNAcαBn] | <1% | <1% | 
23 | CC(=O)N[C@H]1[C@@H](OCc2ccccc2)O[C@H](CO)[C@H](O)[C@@H]1O[C@@H]1O[C@H](CO)[C@H](O)[C@H](O)[C@H]1O [Galβ1–3GalNAcα-Bn] | 64% | 35% | 
24 | CC(=O)N[C@H]1[C@@H](OP(=O)(O)OP(=O)(O)OC[C@H]2O[C@@H](n3ccc(=O)[nH]c3=O)[C@H](O)[C@@H]2O)O[C@H](CO)[C@@H](O)[C@@H]1O [UDP-GlcNAc, reference compound] |  |  | Vmax ([1]; C2GnT1, donor substrate, using 5 mM Galβ1–3GalNAcα-pnp): 0.1 µmol/h/mg; Vmax ([2]; C2GnT2, donor substrate, using 5 mM Galβ1–3GalNAcα-pnp): 1.7 µmol/h/mg; Vmax ([2]; C2GnT2, donor substrate, using 5 mM GlcNAcβ1–3GalNAcα-pnp): 0.8 µmol/h/mg
25 | T-(GlcNAcβ1–3GalNAcα)TTVTPTPTG | <1% | <1% | 
26 | AHGVT-(Galβ1–3GalNAcα)SAPESRPAPGSTAPNA | 9% | <1% | 
27 | COC[C@H]1O[C@H](OCc2ccccc2)[C@H](NC(C)=O)[C@@H](O[C@@H]2O[C@H](CO)[C@H](O)[C@H](O)[C@H]2O)[C@H]1O [Galβ1–3(6-O-methyl)GalNAcα-Bn] | <1% | <1% | 
28 | Ac-GT-(Galβ1–3GalNAcα)TTPIST-NH2 | 13% | 5% | 
29 | C=CCO[C@H]1O[C@H](CO)[C@H](O)[C@H](O[C@@H]2O[C@H](CO)[C@@H](O)[C@H](O)[C@H]2NC(C)=O)[C@H]1NC(C)=O [GlcNAcβ1–3GalNAcα-allyl] | <1% | 27% | 
30 | CC(=O)N[C@H]1[C@@H](OCc2ccccc2)O[C@H](CO)C[C@@H]1O[C@@H]1O[C@H](CO)[C@H](O)[C@H](O)[C@H]1O [Galβ1–3(4-deoxy)GalNAcα-Bn] | <1% | <1% | 
31 | CO[C@H]1O[C@H](CO)[C@H](O)[C@H](O[C@@H]2O[C@H](CO)[C@H](O)[C@H](O)[C@H]2O[C@@H]2O[C@@H](C)[C@@H](O)[C@@H](O)[C@@H]2O)[C@H]1NC(C)=O [Fucα1–2Galβ1–3GalNAcα-methyl] | <1% | <1% | 
32 | TET-(GalNAcα)TSHSTPG |  |  | C1GalT activity (%) [3]: 210%
33 | AHGVT-(Galβ1–3GalNAcα)SAPDTRPAPGSTAPTA | 9% | <1% | 

Now from value to compound, other results behind:

Row | C2GnT1 activity (%) [1] | C2GnT2 activity (%) [2] | Compound | further results
34 | 135% | 86% | C=C(C)C1CC=C(CO[C@H]2O[C@H](CO)[C@H](O)[C@H](O[C@@H]3O[C@H](CO)[C@H](O)[C@H](O)[C@H]3O)[C@H]2NC(C)=O)CC1 (stereo partly shown) [Galβ1–3GalNAcα-perillyl] | 
35 | 12% | <1% | TT-(Galβ1–3GalNAcα)TVTP-(Galβ1–3GalNAcα)TPTG | 
36 | <1% | <1% | TETTSHS-(GlcNAcβ1–3GalNAcα)TPG | 
37 | 11% | <1% | T-(Galβ1–3GalNAcα)TTVTPTPTG | 
38 | <1% | <1% | TET-(GlcNAcβ1–3GalNAcα)TSHSTPG | 
39 | <1% | <1% | CC(=O)N[C@H]1[C@@H](OCc2ccccc2)O[C@H](CO)[C@H](O)[C@@H]1O[C@@H]1O[C@H](CO)[C@H](O)[C@H](O[C@@H]2O[C@H](CO)[C@@H](O)[C@H](O[C@@H]3O[C@H](CO)[C@H](O)[C@H](O)[C@H]3O)[C@H]2NC(C)=O)[C@H]1O [Galβ1–3GlcNAcβ1–3Galβ1–3GalNAcα-Bn] | 
40 | <1% | <1% | CC(=O)N[C@H]1[C@@H](OCc2ccccc2)O[C@H](CO)[C@H](O)[C@@H]1O[C@@H]1O[C@H](CO)[C@H](F)[C@H](O)[C@H]1O [4-F-4-Deoxy-Galβ1–3GalNAcα-Bn] | 
41 | 79% | 100% | CC(=O)N[C@H]1[C@@H](Oc2ccccc2[N+](=O)[O-])O[C@H](CO)[C@H](O)[C@@H]1O[C@@H]1O[C@H](CO)[C@H](O)[C@H](O)[C@H]1O [Galβ1–3GalNAcα-onp] | 
42 | <1% | <1% | TE-(GlcNAcβ1–6GalNAcα)TTSHSTPG | C1GalT activity (%) [3]: <1%
43 | <1% | <1% | CO[C@@H]1O[C@H](CO)[C@H](O)[C@H](O[C@@H]2O[C@H](CO)[C@@H](O)[C@H](O)[C@H]2NC(C)=O)[C@H]1O [GlcNAcβ1–3-Galβ-methyl] | 
44 | 92% | <1% | (Galβ1–3GalNAcα)TAGV | 
45 | <1% | <1% | TE-(GlcNAcβ1–3GalNAcα)TTSHSTPG | 
46 | 14% | <1% | Ac-GTT-(Galβ1–3GalNAcα)TPIST-NH2 | 
47 | 43% | 15% | Ac-PT-(Galβ1–3GalNAcβ)TTPIST-NH2 | 
